Patent US20230278972A1, “SUBSTITUTED HALOALKYL SULFONANILIDE HERBICIDES” (FMC Corporation, priority 2020, published 2023)

Legend:
Format in all cases: in vivo
[1] = tested on: Foxtail, Giant (giant foxtail, Setaria faberi); assay: Test A postemergence, Foxtail, Giant; conditions: Postemergence, 0 to 100 scale (0 no effect, 100 complete control); for Foxtail, Giant plant response rating: visual injury vs untreated controls after approx. 10 days
Excerpt: (§1) Seeds of plant species selected from barnyardgrass (Echinochloa crus-galli), kochia (Bassia scoparia), ragweed (common ragweed, Ambrosia artemisiifolia), Ryegrass, Italian (Italian ryegrass, Lolium multiflorum), Foxtail, Giant (giant foxtail, Setaria faberi), and pigweed (Amaranthus retroflexus) were planted into a blend of loam soil and sand and treated preemergence with a directed soil spray using test chemicals formulated in a non-phytotoxic solvent mixture which included a surfactant. At the same time, plants selected from these weed species and also wheat (Triticum aestivum), corn (Zea mays), blackgrass (Alopecurus myosuroides), and galium (catchweed bedstraw, Galium aparine) were planted in pots containing the same blend of loam soil and sand and treated with postemergence applications of test chemicals formulated in the same manner. Plants ranged in height from 2 to 10 cm and were in the one- to two-leaf stage for the postemergence treatment. […] A dash (-) response means no test result.

[2] = tested on: ragweed (common ragweed, Ambrosia artemisiifolia); assay: Test A preemergence, ragweed; conditions: Preemergence; for Ragweed plant response rating: 125 g ai/ha, visual injury on 0 to 100 scale (0 no effect, 100 complete control), approximately 10 days; for Plant response rating, Ragweed: 500 g ai/ha, 0 to 100 scale (0 no effect, 100 complete control)
Excerpt: as §1

[3] = tested on: wheat (Triticum aestivum); assay: Test A postemergence, wheat; conditions: Postemergence, 0 to 100 scale (0 no effect, 100 complete control); for Wheat plant response rating: visual injury vs untreated controls after approx. 10 days
Excerpt: as §1

[4] = tested on: galium (catchweed bedstraw, Galium aparine); assay: Test A postemergence, galium; conditions: Postemergence, 0 to 100 scale (0 no effect, 100 complete control); for Galium plant response rating: visual injury vs untreated controls after approx. 10 days
Excerpt: as §1

[5] = tested on: ragweed (common ragweed, Ambrosia artemisiifolia); assay: Test A postemergence, ragweed; conditions: Postemergence, 0 to 100 scale (0 no effect, 100 complete control); for Ragweed plant response rating: visual injury vs untreated controls after approx. 10 days
Excerpt: as §1

[6] = tested on: Ryegrass, Italian (Italian ryegrass, Lolium multiflorum); assay: Test A preemergence, Ryegrass, Italian; conditions: Preemergence; for Ryegrass, Italian plant response rating: 125 g ai/ha, visual injury on 0 to 100 scale (0 no effect, 100 complete control), approximately 10 days; for Plant response rating, Ryegrass, Italian: 500 g ai/ha, 0 to 100 scale (0 no effect, 100 complete control)
Excerpt: as §1

kochia (Bassia scoparia) [7] = assay: Test A postemergence, kochia; conditions: Postemergence, 0 to 100 scale (0 no effect, 100 complete control); for Kochia plant response rating: visual injury vs untreated controls after approx. 10 days
Excerpt: as §1

[8] = tested on: Ryegrass, Italian (Italian ryegrass, Lolium multiflorum); assay: Test A postemergence, Ryegrass, Italian; conditions: Postemergence, 0 to 100 scale (0 no effect, 100 complete control); for Ryegrass, Italian plant response rating: visual injury vs untreated controls after approx. 10 days
Excerpt: as §1

[9] = tested on: barnyardgrass (Echinochloa crus-galli); assay: Test A postemergence, barnyardgrass; conditions: Postemergence, 0 to 100 scale (0 no effect, 100 complete control); for Barnyardgrass plant response rating: visual injury vs untreated controls after approx. 10 days
Excerpt: as §1

[10] = tested on: barnyardgrass (Echinochloa crus-galli); assay: Test A preemergence, barnyardgrass; conditions: Preemergence; for Barnyardgrass plant response rating: 125 g ai/ha, visual injury on 0 to 100 scale (0 no effect, 100 complete control), approximately 10 days; for Plant response rating, Barnyardgrass: 500 g ai/ha, 0 to 100 scale (0 no effect, 100 complete control)
Excerpt: as §1

[11] = tested on: blackgrass (Alopecurus myosuroides); assay: Test A postemergence, blackgrass; conditions: Postemergence, 0 to 100 scale (0 no effect, 100 complete control); for Blackgrass plant response rating: visual injury vs untreated controls after approx. 10 days
Excerpt: as §1

[12] = tested on: pigweed (Amaranthus retroflexus); assay: Test A postemergence, pigweed; conditions: Postemergence, 0 to 100 scale (0 no effect, 100 complete control); for Pigweed plant response rating: visual injury vs untreated controls after approx. 10 days
Excerpt: as §1

corn (Zea mays) = assay: Test A postemergence, corn; conditions: Postemergence, 0 to 100 scale (0 no effect, 100 complete control); for Corn plant response rating: visual injury vs untreated controls after approx. 10 days
Excerpt: as §1

kochia (Bassia scoparia) [13] = assay: Test A preemergence, kochia; conditions: Preemergence; for Kochia plant response rating: 125 g ai/ha, visual injury on 0 to 100 scale (0 no effect, 100 complete control), approximately 10 days; for Plant response rating, Kochia: 500 g ai/ha, 0 to 100 scale (0 no effect, 100 complete control)
Excerpt: as §1

[14] = tested on: Foxtail, Giant (giant foxtail, Setaria faberi); assay: Test A preemergence, Foxtail, Giant; conditions: Preemergence; for Foxtail, Giant plant response rating: 125 g ai/ha, visual injury on 0 to 100 scale (0 no effect, 100 complete control), approximately 10 days; for Plant response rating, Foxtail, Giant: 500 g ai/ha, 0 to 100 scale (0 no effect, 100 complete control)
Excerpt: as §1

[15] = 125 g ai/ha, visual injury approx. 10 days
[16] = 500 g ai/ha, visual injury, approx. 10 days

CCc1cc(-c2cc(N(S(=O)(=O)C(F)(F)F)S(=O)(=O)C(F)(F)F)c(C)cc2C)c(=O)n(C)n1 [Compound 28]
100: Plant response rating, Barnyardgrass [10]
20: Plant response rating, Galium [4, 15] | Plant response rating, Ragweed [5, 15]
0: Plant response rating, Foxtail, Giant [1, 15] | Ragweed plant response rating [2] | Plant response rating, Kochia (kochia (Bassia scoparia) [7]; [15]) | Plant response rating, Ryegrass, Italian [8, 15] | Plant response rating, Ryegrass, Italian [8, 16] | Plant response rating, Barnyardgrass [9, 15] | Plant response rating, Blackgrass [11, 15] | Plant response rating, Pigweed [12, 15] | Plant response rating, Corn (corn (Zea mays); [15]) | Plant response rating, Corn (corn (Zea mays); [16])
30: Plant response rating, Ragweed [2] | Plant response rating, Wheat [3, 15] | Plant response rating, Kochia (kochia (Bassia scoparia) [7]; [16]) | Plant response rating, Blackgrass [11, 16] | Foxtail, Giant plant response rating [14]
80: Plant response rating, Ragweed [5, 16] | Plant response rating, Barnyardgrass [9, 16]
40: Plant response rating, Pigweed [12, 16]
10: Plant response rating, Foxtail, Giant [1, 16]
70: Plant response rating, Galium [4, 16] | Kochia plant response rating (kochia (Bassia scoparia) [13])
60: Barnyardgrass plant response rating [10]
90: Plant response rating, Ryegrass, Italian [6] | Plant response rating, Kochia (kochia (Bassia scoparia) [13]) | Plant response rating, Foxtail, Giant [14]
50: Plant response rating, Wheat [3, 16] | Ryegrass, Italian plant response rating [6]

Cc1cc(C)c(C2=NOC3(C2)CC(C)OC(C)C3)cc1NS(=O)(=O)C(F)(F)F (single isomer, unassigned) [Compound 173]
70: Plant response rating, Wheat ([3]; 125 g ai/ha) | Wheat plant response rating ([3]; 500 g ai/ha) | Plant response rating, Ryegrass, Italian ([8]; 125 g ai/ha) | Plant response rating, Corn (corn (Zea mays); 125 g ai/ha)
90: Plant response rating, Foxtail, Giant ([1]; 125 g ai/ha) | Foxtail, Giant plant response rating ([1]; 500 g ai/ha) | Ragweed plant response rating [2] | Plant response rating, Ragweed [2] | Plant response rating, Galium ([4]; 125 g ai/ha) | Galium plant response rating ([4]; 500 g ai/ha) | Ragweed plant response rating ([5]; 500 g ai/ha) | Ryegrass, Italian plant response rating [6] | Barnyardgrass plant response rating ([9]; 500 g ai/ha) | Barnyardgrass plant response rating [10] | Plant response rating, Barnyardgrass [10] | Pigweed plant response rating ([12]; 500 g ai/ha) | Plant response rating, Kochia (kochia (Bassia scoparia) [13])
50: Plant response rating, Kochia (kochia (Bassia scoparia) [7]; 125 g ai/ha) | Plant response rating, Blackgrass ([11]; 125 g ai/ha)
100: Plant response rating, Ryegrass, Italian [6] | Foxtail, Giant plant response rating [14] | Plant response rating, Foxtail, Giant [14]
60: Blackgrass plant response rating ([11]; 500 g ai/ha) | Kochia plant response rating (kochia (Bassia scoparia) [13])
80: Plant response rating, Ragweed ([5]; 125 g ai/ha) | Kochia plant response rating (kochia (Bassia scoparia) [7]; 500 g ai/ha) | Ryegrass, Italian plant response rating ([8]; 500 g ai/ha) | Plant response rating, Barnyardgrass ([9]; 125 g ai/ha) | Plant response rating, Pigweed ([12]; 125 g ai/ha) | Corn plant response rating (corn (Zea mays); 500 g ai/ha)

Cc1cc(C)c(C2=NOC3(CCC(F)(F)CC3)C2)cc1NS(=O)(=O)C(F)(F)F [Compound 172]
30: Plant response rating, Wheat ([3]; 125 g ai/ha)
70: Wheat plant response rating ([3]; 500 g ai/ha) | Plant response rating, Pigweed ([12]; 125 g ai/ha) | Corn plant response rating (corn (Zea mays); 500 g ai/ha)
90: Plant response rating, Ragweed [2] | Plant response rating, Galium ([4]; 125 g ai/ha) | Galium plant response rating ([4]; 500 g ai/ha) | Barnyardgrass plant response rating [10] | Plant response rating, Barnyardgrass [10] | Pigweed plant response rating ([12]; 500 g ai/ha) | Plant response rating, Kochia (kochia (Bassia scoparia) [13]) | Foxtail, Giant plant response rating [14]
60: Plant response rating, Ragweed ([5]; 125 g ai/ha) | Plant response rating, Ryegrass, Italian ([8]; 125 g ai/ha) | Plant response rating, Barnyardgrass ([9]; 125 g ai/ha) | Kochia plant response rating (kochia (Bassia scoparia) [13])
100: Ryegrass, Italian plant response rating [6] | Plant response rating, Ryegrass, Italian [6] | Plant response rating, Foxtail, Giant [14]
20: Plant response rating, Foxtail, Giant ([1]; 125 g ai/ha)
40: Ragweed plant response rating [2] | Plant response rating, Kochia (kochia (Bassia scoparia) [7]; 125 g ai/ha) | Blackgrass plant response rating ([11]; 500 g ai/ha) | Plant response rating, Corn (corn (Zea mays); 125 g ai/ha)
0: Plant response rating, Blackgrass ([11]; 125 g ai/ha)
80: Foxtail, Giant plant response rating ([1]; 500 g ai/ha) | Ragweed plant response rating ([5]; 500 g ai/ha) | Kochia plant response rating (kochia (Bassia scoparia) [7]; 500 g ai/ha) | Ryegrass, Italian plant response rating ([8]; 500 g ai/ha) | Barnyardgrass plant response rating ([9]; 500 g ai/ha)

Cc1cc(C)c(C2=NOC(C(C)(C)C)C2)cc1NS(=O)(=O)C(F)(F)F (stereo not drawn) [Compound 108]
40: Plant response rating, Ragweed [5, 15]
60: Plant response rating, Ragweed [2] | Pigweed plant response rating ([12]; 500 g ai/ha)
80: Ragweed plant response rating ([5]; 500 g ai/ha) | Kochia plant response rating (kochia (Bassia scoparia) [7]; 500 g ai/ha) | Kochia plant response rating (kochia (Bassia scoparia) [13]) | Foxtail, Giant plant response rating [14]
30: Foxtail, Giant plant response rating ([1]; 500 g ai/ha) | Plant response rating, Wheat [3, 15] | Plant response rating, Kochia (kochia (Bassia scoparia) [7]; [15])
100: Plant response rating, Ryegrass, Italian [6] | Plant response rating, Barnyardgrass [10] | Plant response rating, Foxtail, Giant [14]
90: Galium plant response rating ([4]; 500 g ai/ha) | Ryegrass, Italian plant response rating [6] | Barnyardgrass plant response rating ([9]; 500 g ai/ha) | Plant response rating, Kochia (kochia (Bassia scoparia) [13])
50: Blackgrass plant response rating ([11]; 500 g ai/ha) | Corn plant response rating (corn (Zea mays); 500 g ai/ha)
0: Plant response rating, Foxtail, Giant [1, 15] | Plant response rating, Ryegrass, Italian [8, 15] | Plant response rating, Blackgrass [11, 15] | Plant response rating, Pigweed [12, 15] | Plant response rating, Corn (corn (Zea mays); [15])
70: Wheat plant response rating ([3]; 500 g ai/ha) | Plant response rating, Galium [4, 15] | Ryegrass, Italian plant response rating ([8]; 500 g ai/ha) | Barnyardgrass plant response rating [10]
20: Ragweed plant response rating [2] | Plant response rating, Barnyardgrass [9, 15]
